The values below are quoted from earlier work in patent US7621907B2, “Implantable drug delivery system” (Alcon, Inc., priority 2002, dated 2009).

Structures can show the parent of a compound that is named as a salt.

The conditions of the data set: descriptive statement, no test described.

For the molecule `CC(C)NCC(O)COc1ccc(CCOCC2CC2)cc1` (centres unmarked) [betaxolol HCl], the water solubility entry is “relatively high”.

As to `NC(=O)Cc1cccc(C(=O)c2ccccc2)c1N` [nepafenac], the water solubility entry is reported as “relatively low”.
